From patent US9302999B2, “Substituted triazoles as herbicides” (E. I. DU PONT DE NEMOURS AND COMPANY, priority 2012, dated 2016)

How the values were obtained:
Format in all cases: in vivo
[1] = system: crabgrass, large (large crabgrass, Digitaria sanguinalis); experiment: Test A pre-/postemergence: crabgrass, large; details: for Crabgrass, Large plant response rating: Postemergence; for Plant response rating, Crabgrass, Large: Preemergence
Method in brief: (§1)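 Each species received preemergence soil-directed spraying and, at the same time, postemergence treatment of seedlings 2–10 cm tall. Formulation: non-phytotoxic solvent mixture including surfactant. Response assessed visually about ten days on, relative to untreated controls, 0–100 scale.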

[2] = system: foxtail, giant (giant foxtail, Setaria faberii); experiment: Test A pre-/postemergence: foxtail, giant; details: for Foxtail, Giant plant response rating: Postemergence; for Plant response rating, Foxtail, Giant: Preemergence
Method in brief: as §1

[3] = system: morningglory (Ipomoea spp.); experiment: Test A pre-/postemergence: morningglory; details: for Morningglory plant response rating: Postemergence; for Plant response rating, Morningglory: Preemergence
Method in brief: as §1

kochia (Kochia scoparia) = experiment: Test C pre-/postemergence: kochia
Method in brief: (§2)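 Preemergence on seeds in loam/sand, postemergence on 2–18 cm (1–4-leaf) plants in peat-based medium; compounds in non-phytotoxic solvent with surfactant. After 13–15 days in greenhouse, visual rating versus controls, 0 (no effect) to 100 (complete control).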

[4] = system: nutsedge, yellow (yellow nutsedge, Cyperus esculentus); experiment: Test C pre-/postemergence: nutsedge, yellow
Method in brief: as §2

[5] = system: ragweed (common ragweed, Ambrosia elation); experiment: Test C pre-/postemergence: ragweed
Method in brief: as §2

soybean (Glycine max) = experiment: Test C pre-/postemergence: soybean
Method in brief: as §2

[6] = system: velvetleaf (Abutilon theophrasti); experiment: Test C pre-/postemergence: velvetleaf
Method in brief: as §2

[7] = 125 g ai/ha, 0 to 100 scale, 0 is no effect, 100 is complete control
[8] = 500 g ai/ha, visual rating on 0 to 100 scale (0 no effect, 100 complete control), approximately ten days
[9] = 125 g ai/ha, 0 to 100 scale (0 no effect, 100 complete control)
[10] = 500 g ai/ha, 0 to 100 scale, 0 is no effect, 100 is complete control
[11] = Postemergence, 31 g ai/ha, scale 0 to 100 (0 no effect, 100 complete control)
[12] = Postemergence, 62 g ai/ha, scale 0 to 100 (0 no effect, 100 complete control)
[13] = Postemergence, 125 g ai/ha, scale 0 to 100, 0 no effect, 100 complete control
[14] = Postemergence, 250 g ai/ha, scale 0 to 100
[15] = Preemergence, 31 g ai/ha, scale of 0 to 100, 0 is no effect, 100 is complete control
[16] = Preemergence, 62 g ai/ha, scale of 0 to 100, 0 is no effect, 100 is complete control
[17] = Preemergence, 125 g ai/ha, scale 0 to 100, 0 no effect, 100 complete control
[18] = Preemergence, 250 g ai/ha, scale 0 to 100, 0 no effect, 100 complete control

Compound: Cc1nn(-c2ccc(C(F)(F)F)cn2)nc1Oc1ccnc(C(F)(F)F)c1 [Compound 23]
- Crabgrass, Large plant response rating [1, 7]: 90
- Crabgrass, Large plant response rating [1, 8]: 90
- Plant response rating, Crabgrass, Large [1, 9]: 100
- Plant response rating, Crabgrass, Large [1, 10]: 100
- Foxtail, Giant plant response rating [2, 7]: 90
- Foxtail, Giant plant response rating [2, 8]: 90
- Plant response rating, Foxtail, Giant [2, 9]: 100
- Plant response rating, Foxtail, Giant [2, 10]: 100
- Morningglory plant response rating [3, 7]: 90
- Morningglory plant response rating [3, 8]: 100
- Plant response rating, Morningglory [3, 9]: 80
- Plant response rating, Morningglory [3, 10]: 80
- Plant response rating, Kochia (kochia (Kochia scoparia); [11]): 65
- Plant response rating, Kochia (kochia (Kochia scoparia); [12]): 75
- Plant response rating, Kochia (kochia (Kochia scoparia); [13]): 80
- Plant response rating, Kochia (kochia (Kochia scoparia); [14]): 85
- Plant response rating, Kochia (kochia (Kochia scoparia); [15]): 95
- Plant response rating, Kochia (kochia (Kochia scoparia); [16]): 95
- Plant response rating, Kochia (kochia (Kochia scoparia); [17]): 95
- Plant response rating, Kochia (kochia (Kochia scoparia); [18]): 100
- Plant response rating, Nutsedge, Yellow [4, 11]: 10
- Plant response rating, Nutsedge, Yellow [4, 12]: 10
- Plant response rating, Nutsedge, Yellow [4, 13]: 10
- Plant response rating, Nutsedge, Yellow [4, 14]: 10
- Plant response rating, Nutsedge, Yellow [4, 15]: 5
- Plant response rating, Nutsedge, Yellow [4, 16]: 10
- Plant response rating, Nutsedge, Yellow [4, 17]: 35
- Plant response rating, Nutsedge, Yellow [4, 18]: 55
- Plant response rating, Ragweed [5, 11]: 10
- Plant response rating, Ragweed [5, 12]: 10
- Plant response rating, Ragweed [5, 13]: 20
- Plant response rating, Ragweed [5, 14]: 20
- Plant response rating, Ragweed [5, 15]: 5
- Plant response rating, Ragweed [5, 16]: 20
- Plant response rating, Ragweed [5, 17]: 20
- Plant response rating, Ragweed [5, 18]: 60
- Plant response rating, Soybean (soybean (Glycine max); [11]): 30
- Plant response rating, Soybean (soybean (Glycine max); [12]): 55
- Plant response rating, Soybean (soybean (Glycine max); [13]): 55
- Plant response rating, Soybean (soybean (Glycine max); [14]): 65
- Plant response rating, Soybean (soybean (Glycine max); [15]): 0
- Plant response rating, Soybean (soybean (Glycine max); [16]): 5
- Plant response rating, Soybean (soybean (Glycine max); [17]): 10
- Plant response rating, Soybean (soybean (Glycine max); [18]): 50
- Plant response rating, Velvetleaf [6, 11]: 15
- Plant response rating, Velvetleaf [6, 12]: 25
- Plant response rating, Velvetleaf [6, 13]: 40
- Plant response rating, Velvetleaf [6, 14]: 50
- Plant response rating, Velvetleaf [6, 15]: 5
- Plant response rating, Velvetleaf [6, 16]: 25
- Plant response rating, Velvetleaf [6, 17]: 80
- Plant response rating, Velvetleaf [6, 18]: 100
